From paper PMC11939078, “TAK-994 mechanistic investigation into drug-induced liver injury” (Toxicological Sciences, 2025)

Legend:
nonTg-rasH2 mice = experiment: NonTg rasH2 mice 4-week oral gavage toxicity study; assay type: in vivo, mouse; settings: for Histopathological Liver Findings / ALT / AST / GLDH: NonTg rasH2 mice 4-week; for ALT / AST / GLDH: mean (SD)
Description: Although phase I human clinical trials were ongoing, additional GLP-compliant repeat-dose oral toxicity studies were conducted in nonTg-rasH2 mice, to enable carcinogenicity studies. […] The liver toxicity presented at high doses ≥300 mg/kg/day as single-cell necrosis of periportal hepatocytes associated with increased aspartate aminotransferase (AST), alkaline phosphatase, ALT, and glutamate dehydrogenase values that increased in a dose-proportional manner alongside cytochrome P450 induction (Table S2).
^cAll dose levels had 10 animals per sex.
*p<0.05 using Shirley-Williams test.

participants = experiment: Phase I first-in-human study TAK-994-1001, safety; assay type: in vivo
Excerpt: TAK-994 was considered to be well tolerated in phase I studies. […] Of 121 participants, 1 subject discontinued due to elevated alanine aminotransferase (ALT) with no other liver enzyme elevations. This event was considered mild in intensity and the participant recovered within 2 wk. No other clinically significant liver enzyme elevations were reported in phase I studies.

patients with narcolepsy = settings: in vivo
human liver microtissues = experiment: Human liver microtissue (co-culture) cytotoxicity, cellular ATP; assay type: cell-based
Description: Toxicology of TAK-994 was assessed using lnSphero’s 3D lnSight Human Liver models, based on N-acetyl-L-cysteine causality assay, glutathione depletion assay, and lipopolysaccharide (LPS)-sensitization assay. Hepatotoxicity was assessed in 7- and 14-day mono and co-culture models, in which cells were exposed to TAK-994 (0.1, 0.3, 1, 3.16, 10, 31.6, or 100 μM) […].
The test system was Human 3D InSight Liver Models, production ID hLiMT_589, cryopreserved primary human hepatocytes (Lot IPDH_18; single donor) in monoculture or in co-culture with cryopreserved primary human nonparenchymal cells (Lot IPHN_17; single donor). Human liver microtissues are composed of roughly 1000 hepatocytes and 1000 non-parenchymal live cells. Non-parenchymal liver cell fractions are expected to be composed of Kupffer cells and liver endothelial cells however, these were not identified.
The culture medium was 3D InSight Human Liver Maintenance Medium TOX (Catalogue No. CS-07-001, InSphero). The treated cells in 96-well Akura™ plates were incubated in a humidified cell culture incubator (37°C, 5% CO2).
Mono and co-culture model cells were exposed to TAK-994 (0.1, 0.3, 1, 3.16, 10, 31.6, or 100 μM in 0.5% DMSO) for 7 days (TAK-994 administered on Days 0 and 4) or 14 days (TAK-994 administered on Days 0, 5, and 9). Six replicates were tested for each condition. The vehicle control was 0.5% DMSO, and the positive control was chlorpromazine (0.1, 0.3, 1, 3.16, 10, 31.6, or 100 μM in DMSO). Cellular ATP content was measured in the cell lysate on Days 7 or 14 of treatment. LDH release was measured in the cell supernatant on Days 4 and 7 or on Days 5, 9, and 14 and normalized to lysed controls.
Intracellular ATP content in model lysates was measured with the CellTiter-Glo® 2.0 Cell Viability Assay (Catalogue No. G9243, Promega). The Bioluminescent LDH Release Toxicity Assay Kit (Catalogue No. J2380, Promega) was used to assess extracellular LDH release and normalized to lysed controls. ATP, LDH, GSH, and triglycerides were measured according to internal technical operating procedures.

cynomolgus monkeys = experiment: Monkey 39-week oral gavage toxicity study; assay type: in vivo, cynomolgus monkey; settings: for Histopathological Liver Findings / ALT / AST / GLDH: monkey 39-week; for ALT / AST / GLDH: mean (SD)
Excerpt: TAK-994 performed well in tiered safety screening assays, with wide margins between in vitro IC50 and the predicted efficacious exposures (Table 1). […] Based on the safety profiles observed in these animal studies, TAK-994 progressed into phase I clinical trials.
^bAll dose levels had 4 animals per sex. No statistical difference was observed between the TAK-994 and control groups.

HepG2 = experiment: Mito Stress Test (Seahorse, ECAR and OCR); assay type: cell-based, human; settings: 3, 10, 30, and 100 μM

SMILES: CC(C)(O)C(=O)N1CC[C@H](NS(C)(=O)=O)[C@@H]1Cc1cccc(-c2cc(F)cc(F)c2)c1F.CC(C)(O)C(=O)N1CC[C@H](NS(C)(=O)=O)[C@@H]1Cc1cccc(-c2cc(F)cc(F)c2)c1F.O.O.O [TAK-994]
- Histopathological Liver Findings (nonTg-rasH2 mice; female, 300 mg/kg): Single cell necrosis of hepatocytes
- ALT (nonTg-rasH2 mice; female, 300 mg/kg): 175 (79)* IU/L
- AST (nonTg-rasH2 mice; female, 300 mg/kg): 163 (65)* IU/L
- GLDH (nonTg-rasH2 mice; female, 300 mg/kg): 172 (66)* IU/L
- Histopathological Liver Findings (nonTg-rasH2 mice; female, 2000 mg/kg): Single cell necrosis of hepatocytes
- ALT (nonTg-rasH2 mice; female, 2000 mg/kg): 581 (278)* IU/L
- AST (nonTg-rasH2 mice; female, 2000 mg/kg): 317 (203)* IU/L
- GLDH (nonTg-rasH2 mice; female, 2000 mg/kg): 562 (324)* IU/L
- Histopathological Liver Findings (nonTg-rasH2 mice; female, 4000 mg/kg): Single cell necrosis of hepatocytes
- ALT (nonTg-rasH2 mice; female, 4000 mg/kg): 1242 (604)* IU/L
- AST (nonTg-rasH2 mice; female, 4000 mg/kg): 473 (216)* IU/L
- GLDH (nonTg-rasH2 mice; female, 4000 mg/kg): 1384 (585)* IU/L
- Histopathological Liver Findings (nonTg-rasH2 mice; male, 300 mg/kg): Single cell necrosis of hepatocytes
- ALT (nonTg-rasH2 mice; male, 300 mg/kg): 99 (57)* IU/L
- AST (nonTg-rasH2 mice; male, 300 mg/kg): 79 (34)* IU/L
- GLDH (nonTg-rasH2 mice; male, 300 mg/kg): 104 (68)* IU/L
- Histopathological Liver Findings (nonTg-rasH2 mice; male, 2000 mg/kg): Single cell necrosis of hepatocytes
- ALT (nonTg-rasH2 mice; male, 2000 mg/kg): 337 (409)* IU/L
- AST (nonTg-rasH2 mice; male, 2000 mg/kg): 211 (299)* IU/L
- GLDH (nonTg-rasH2 mice; male, 2000 mg/kg): 331 (356)* IU/L
- Histopathological Liver Findings (nonTg-rasH2 mice; male, 4000 mg/kg): Single cell necrosis of hepatocytes
- ALT (nonTg-rasH2 mice; male, 4000 mg/kg): 1164 (330)* IU/L
- AST (nonTg-rasH2 mice; male, 4000 mg/kg): 443 (150)* IU/L
- GLDH (nonTg-rasH2 mice; male, 4000 mg/kg): 1303 (408)* IU/L
- doses at which liver toxicity (single-cell necrosis of periportal hepatocytes, increased AST, ALP, ALT, GLDH) presented (nonTg-rasH2 mice; nonTg-rasH2 mice, repeat-dose oral): ≥ 300 mg/kg/day
- deaths or SAEs (participants; TAK-994-1001): no deaths or SAEs were reported
- subjects discontinued due to elevated ALT (participants; of 121 participants): 1
- onset of earliest Hy's Law case (patients with narcolepsy): 50 days
- loss of cellular ATP (human liver microtissues; 100 µM TAK-994, presence of nonparenchymal cells): ~50%
- liver microtissue IC50 relative to clinical Cmax (human liver microtissues; 14 days, Cmax in patients dosed at 90 mg): > 100 fold
- IC50 (human liver microtissues; cellular ATP, read-out: IC50, liver microtissues (Fig. 2B)): > 100 µM
- adverse liver findings, chronic dose toxicity study (cynomolgus monkeys; cynomolgus monkeys, 9-mo, up to the high dose tested of 1,000 mg/kg): no adverse liver findings
- Histopathological Liver Findings (cynomolgus monkeys; female, 60 mg/kg): No adverse findings
- ALT (cynomolgus monkeys; female, 60 mg/kg): 35 (9) IU/L
- AST (cynomolgus monkeys; female, 60 mg/kg): 31 (6) IU/L
- GLDH (cynomolgus monkeys; female, 60 mg/kg): 11 (2) IU/L
- Histopathological Liver Findings (cynomolgus monkeys; female, 200 mg/kg): No adverse findings
- ALT (cynomolgus monkeys; female, 200 mg/kg): 28 (9) IU/L
- AST (cynomolgus monkeys; female, 200 mg/kg): 27 (12) IU/L
- GLDH (cynomolgus monkeys; female, 200 mg/kg): 11 (1) IU/L
- Histopathological Liver Findings (cynomolgus monkeys; female, 1000 mg/kg): No adverse findings
- ALT (cynomolgus monkeys; female, 1000 mg/kg): 34 (10) IU/L
- AST (cynomolgus monkeys; female, 1000 mg/kg): 24 (5) IU/L
- GLDH (cynomolgus monkeys; female, 1000 mg/kg): 12 (1) IU/L
- Histopathological Liver Findings (cynomolgus monkeys; male, 60 mg/kg): No adverse findings
- ALT (cynomolgus monkeys; male, 60 mg/kg): 42 (20) IU/L
- AST (cynomolgus monkeys; male, 60 mg/kg): 30 (12) IU/L
- GLDH (cynomolgus monkeys; male, 60 mg/kg): 12 (3) IU/L
- Histopathological Liver Findings (cynomolgus monkeys; male, 200 mg/kg): No adverse findings
- ALT (cynomolgus monkeys; male, 200 mg/kg): 32 (2) IU/L
- AST (cynomolgus monkeys; male, 200 mg/kg): 23 (7) IU/L
- GLDH (cynomolgus monkeys; male, 200 mg/kg): 13 (1) IU/L
- Histopathological Liver Findings (cynomolgus monkeys; male, 1000 mg/kg): No adverse findings
- ALT (cynomolgus monkeys; male, 1000 mg/kg): 33 (9) IU/L
- AST (cynomolgus monkeys; male, 1000 mg/kg): 22 (4) IU/L
- GLDH (cynomolgus monkeys; male, 1000 mg/kg): 13 (3) IU/L
- changes to mitochondrial respiration (media acidification and oxygen consumption rate) (HepG2): no TAK-994-induced changes to mitochondrial respiration
